≈ marks a conversion by molar mass, not a printed value.

The conditions of this series: buffer; pH 7.4; 200.0 µM.
`Cc1cnc(C(=O)OCC(=O)Nc2ccccc2[N+](=O)[O-])cn1` came in with a solubility (kinetic) of more than 47.4 µg/mL. Next, `Cc1cnc(NC(=O)c2c(-c3ccccc3)noc2C)s1`: 39.8 µg/mL (≈ 133 µM); `COc1ccc(CCNC(=O)CCC(=O)NC2CCCC(C)C2C)cc1OC` (configuration not stated): 39.3 µg/mL (≈ 101 µM). `O=C(NC1CCN(S(=O)(=O)c2ccccc2)CC1)c1ccccc1` had a kinetic solubility of less than 0.4 µg/mL.

On to `Cc1c(NC(=O)C(C)OC(=O)c2ccccc2O)c(=O)n(-c2ccccc2)n1C` (configuration not stated), for which the kinetic solubility was more than 59.3 µg/mL. `COc1ccc(CN(C)C2CCN(C)CC2)cc1OC`: the kinetic solubility was 38.3 µg/mL (≈ 138 µM). As to `O=C(O)CC1(CC(=O)NCc2cc(F)cc3c2OCOC3)CCCCC1`, the kinetic solubility is more than 54.8 µg/mL. Next, `CC(=O)c1c(C)c(C)c2n1CCn1c(C)ccc1-2`: 13.4 µg/mL (≈ 55.3 µM); `Cc1ccc(C(=O)Nc2cccc(C(=O)NC3CCCCC3)c2)cc1`: less than 0.4 µg/mL; `O=C(/C=C/c1ccc(O)c([N+](=O)[O-])c1)c1ccc2ccccc2c1`: 1.8 µg/mL (≈ 5.64 µM). Next, `O=c1[nH]c(C(F)(F)F)nc2ccc3ccccc3c12`: more than 39.6 µg/mL; `CCOC(=O)c1c(C)[nH]c(C)c1C(=O)COC(=O)c1ccc(Cl)nc1`: more than 54.7 µg/mL.

`Cc1ccc(Nc2ccncc2S(N)(=O)=O)cc1` yielded a solubility (kinetic) of 33 µg/mL (≈ 125 µM).

`C=CC1CN2CCC1CC2C(OC(C)=O)c1ccnc2ccc(OC)cc12` (configuration not stated) gave a solubility (kinetic) of more than 55 µg/mL.

`COc1ccccc1C1CCN(C(=O)c2cccc([N+](=O)[O-])c2)CC1` gave a kinetic solubility of 39.5 µg/mL (≈ 116 µM). Next, `O=c1[nH]cc(S(=O)(=O)NCc2ccccc2)c(=O)[nH]1`: more than 42.2 µg/mL; `O=C(COC(=O)c1cccnc1Cl)c1ccc(Cl)s1`: more than 47.4 µg/mL; `Cc1ccc(C)c(NC(=O)CCC(=O)NN=C2CCCC2)c1`: more than 45.2 µg/mL. Next, `CN(C)S(=O)(=O)N1CCN(C(=O)c2ccc3c(c2)OCO3)CC1`: more than 51.2 µg/mL; `CC(=O)c1cn(C2OC(CO)C3OC(C)(C)OC32)c(=O)n(C)c1=O` (configuration not stated): 48.9 µg/mL (≈ 144 µM). Take `O=C(CN1CCOCC1)Nc1scc2c1c(=O)oc1ccccc12`: the solubility (kinetic) is less than 0.4 µg/mL. Next, `C/C(=N\NC1=NCCN1)c1ccc(N)c([N+](=O)[O-])c1`: more than 39.3 µg/mL. The compound `O=C1NC(c2cccc([N+](=O)[O-])c2)=CCN1c1ccccc1O` showed a kinetic solubility of 45.2 µg/mL (≈ 145 µM). Next, `CCOc1ccccc1Nc1cc(C)c2cccc(C)c2n1`: 0.5 µg/mL (≈ 1.71 µM); `O=C(COC(=O)COc1ccc(Cl)cc1)NCCCc1ccccc1`: 26.1 µg/mL (≈ 72.1 µM); `COc1ccc(NC(=O)CS(=O)(=O)c2ccc(C)cc2)c(OC)c1`: more than 52.4 µg/mL. In turn, `c1ccc2oc(NC3=NCN(C4CCCCC4)CN3)nc2c1` displayed a kinetic solubility of 1.3 µg/mL (≈ 4.34 µM). In turn, `Cc1nc(SCC(=O)N2CCCCC2)c2c(C)c(C)sc2n1` yielded a kinetic solubility of 33.7 µg/mL (≈ 100 µM). Turning to `Cc1cccc(Nc2nc(OCC#N)nc(N(C)C)n2)c1`, the solubility (kinetic) worked out at 2.8 µg/mL (≈ 9.85 µM). Next, `O=C(COC(=O)c1cccc(Cl)c1Cl)NC1CCCC1`: 12.8 µg/mL (≈ 40.5 µM); `O=C(COC(=O)COc1ccccc1F)Nc1ccc2c(c1)OCO2`: more than 52.1 µg/mL; `NC(=O)c1cc(S(=O)(=O)Nc2cccc(Cl)c2)cs1`: more than 47.5 µg/mL.

For `CC(=O)Nc1ccc(N=Cc2c(O)c3ccccc3oc2=O)cc1`, the solubility (kinetic) was found to be 3.8 µg/mL (≈ 11.8 µM). `O=C(COC(=O)COc1ccccc1)Nc1cccnc1Cl` displayed a kinetic solubility of more than 48.1 µg/mL. Next, `Cc1cc(NC(=O)COC(=O)CNS(=O)(=O)c2c(F)cc(F)cc2Br)no1`: more than 70.2 µg/mL; `CCCC(=O)N/C(N)=N/c1nc(C)c2cc(C)ccc2n1`: 8.5 µg/mL (≈ 29.8 µM); `Cc1cc(C)[n+](Cc2ccccc2)cc1C(N)=O.[Cl-]`: more than 41.5 µg/mL. Next, `O=C(NCCc1ccncc1)Nc1ccc(F)cc1`: more than 38.9 µg/mL; `CNC(=O)C1=C(C)Nc2nc3ccccc3n2C1c1ccc(F)cc1` (configuration not stated): 48.9 µg/mL (≈ 145 µM); `C=CCn1cccc(C(=O)Nc2ccc(C)c(C)c2)c1=O`: 33.4 µg/mL (≈ 118 µM). Next, `Nc1ccc(-c2nc3cc(N)ccc3o2)cc1`: more than 33.8 µg/mL; `O=c1ccc2ccc(Oc3ccc([N+](=O)[O-])cc3Cl)cc2o1`: 2.5 µg/mL (≈ 7.87 µM). `Cc1cc(OCC(O)CN2CCOCC2)cc(C)c1Cl.Cl` (configuration not stated) showed a kinetic solubility of 45.2 µg/mL. This solubility kinetic is about 18-fold higher than that of the compound before.

Turning to `Cc1cc(C)cc(NC(=O)c2cc(C)n(Cc3cccs3)c2C)c1`, the kinetic solubility amounted to 2.3 µg/mL (≈ 6.8 µM).

In turn, `O=C(COC(=O)c1ccc2c(c1)OCCO2)Nc1ccc(F)cc1F` registered a solubility (kinetic) of 6.9 µg/mL (≈ 19.8 µM). Compared with the last compound, the solubility kinetic is about 3-fold higher. Next, `O=C(COC(=O)/C=C/c1ccccc1Cl)NCc1ccco1`: 14.4 µg/mL (≈ 45 µM); `Cc1cccc(NC(=O)OC2CN3CCC2CC3)c1` (configuration not stated): more than 39.1 µg/mL. Next, `Cc1ccc2c(CN3CCCCC3C)cc(=O)oc2c1C.Cl` (configuration not stated): 20.9 µg/mL; `O=C(NCc1ccccc1)c1c[nH]c2ccc(F)cc2c1=O`: 9.1 µg/mL (≈ 30.7 µM). Compound `COc1ccc(C(=O)CSc2nc(C)cc(C)n2)cc1C` had a kinetic solubility of 17.4 µg/mL (≈ 57.5 µM). Next, `Cc1csc(NC(=O)CSC2=NCCS2)n1`: 40.5 µg/mL (≈ 148 µM); `CC1CC1C(=O)OCC(=O)Nc1cc(S(=O)(=O)N2CCCCC2)ccc1Cl` (configuration not stated): 31.1 µg/mL (≈ 75 µM). Next, `CC(C)[C@H](NC(=O)C1CCCC1)c1nc2ccccc2[nH]1`: 9.9 µg/mL (≈ 34.7 µM); `COc1cccc(NC(=O)C(C)SCc2ccccc2)c1` (configuration not stated): more than 45.2 µg/mL. With `CC1(/[N+]([O-])=C/c2ccc(F)cc2)CCCCC1=O` (configuration not stated), the solubility (kinetic) turned out to be 28.3 µg/mL (≈ 114 µM).

The compound `O=C(CC12CC3CC(CC(C3)C1)C2)NCc1ccc(F)cc1` had a kinetic solubility of less than 0.6 µg/mL. As for `CCOc1ccc(NC(=S)Nc2ccc(F)cc2)cc1`, the solubility (kinetic) was 8.3 µg/mL (≈ 28.6 µM). Next, `O=C(Nc1ccncc1)c1ccc(Cl)cc1`: more than 34.9 µg/mL. Next, `CC(C)[C@H](NS(=O)(=O)c1ccccc1F)C(=O)NC1CCCCC1`: more than 53.5 µg/mL; `CCOC(=O)Nc1ccc2c(c1)N(C(=O)CN)c1ccccc1CC2`: 36.6 µg/mL (≈ 108 µM). Next, `CNC(=S)NNC(=O)Cc1ccc(OC)cc1`: more than 38 µg/mL; `COC(=O)c1cn(C(=O)c2cccc(C)c2)c2ccccc12`: 3.9 µg/mL (≈ 13.3 µM); `N#C/C(=C\c1ccc(O)cc1)C(=O)N1CCCC1`: 30.1 µg/mL (≈ 124 µM). Turning to `O=C(NCCCc1nc2ccccc2[nH]1)c1ccc(F)cc1`, the solubility (kinetic) was more than 44.6 µg/mL. Next, `COc1cc(C(=O)NCc2ccc3c(c2)OCO3)c([N+](=O)[O-])cc1OC`: 38.3 µg/mL (≈ 106 µM).

The compound `Cc1ccc(OCC(=O)Nc2ccon2)c([N+](=O)[O-])c1` came in with a solubility (kinetic) of 4.5 µg/mL (≈ 16.2 µM).

The compound `O=C1C(CCS(=O)c2ccccc2)C(=O)N(c2ccccc2)N1c1ccccc1` (configuration not stated) gave a solubility (kinetic) of more than 60.7 µg/mL.

Turning to `O=C(COc1cccc2cccnc12)NCc1cccs1`, the solubility (kinetic) stood at 37.6 µg/mL (≈ 126 µM). Next, `CCOc1ccc(S(=O)(=O)N2CCCCC2)cc1NC(=O)c1cccnc1OCC`: 1.2 µg/mL (≈ 2.77 µM). Next, `c1ccc2c(c1)CCc1c-2nc2ccccc2c1N1CCOCC1`: 10.5 µg/mL (≈ 33.2 µM); `COc1ccccc1OCCCCN1CCC(C)CC1`: 30.7 µg/mL (≈ 111 µM). Next, `CC1(CCc2ccccc2)NC(=O)N(CC(=O)Nc2c(F)cccc2F)C1=O` (configuration not stated): more than 58.1 µg/mL; `COC(=O)C(C)NC(=O)COc1ccc2ccccc2c1` (configuration not stated): more than 43.1 µg/mL; `CCCOc1ccc(CC(=O)NCCc2ccccc2)cc1OC`: 20.3 µg/mL (≈ 62 µM).

`Cc1ccc(OCC(=O)NCCCNC(=O)c2ccco2)cc1C` came in with a kinetic solubility of more than 49.6 µg/mL.

The compound `CC(C)(CNC(=O)c1ccccc1F)CNC(=O)c1ccccc1F` showed a kinetic solubility of 51.6 µg/mL (≈ 149 µM).

`NC(=O)C1CCN(C(=O)/C=C/c2cc(Br)ccc2F)CC1` yielded a kinetic solubility of 47.7 µg/mL (≈ 134 µM).

`CC(=O)Nc1ccc(NC(=O)c2ccccc2Nc2ccccc2)cc1` returned a solubility (kinetic) of 4.4 µg/mL (≈ 12.7 µM). Next, `COc1ccc(NC(=O)C2CCCN(c3nc(C)cc(C)n3)C2)cc1` (configuration not stated): 1.4 µg/mL (≈ 4.11 µM); `CN1CCN(c2nc(Cl)ncc2F)CC1`: more than 34.6 µg/mL. `O=C(CN1CCCC1)Nc1ccc(Cl)cc1C(F)(F)F` displayed a solubility (kinetic) of 22.3 µg/mL (≈ 72.7 µM).

As to `CN(Cc1ccccc1)C(=O)CN1C(=O)c2ccc([N+](=O)[O-])cc2C1=O`, the solubility (kinetic) was more than 53 µg/mL.

`CCN(C(=O)c1cccnc1SC)C12CC3CC(CC(C3)C1)C2` yielded a solubility (kinetic) of 2.3 µg/mL (≈ 6.96 µM).

As for `Cc1ccc2cccc(OCc3ccc(Br)cc3)c2n1`, the kinetic solubility was 0.9 µg/mL (≈ 2.74 µM). Next, `O=C(COC(=O)c1ccc(O)cc1O)NC1CC1`: more than 37.7 µg/mL; `COc1cccc(SCC(=O)N2CCN(c3ccccc3)CC2)c1`: 34.2 µg/mL (≈ 99.9 µM). Next, `Cc1ccc(/C=C/C(=O)NCCc2cccc(Cl)c2)o1`: 5.1 µg/mL (≈ 17.6 µM).

Take `COC(=O)c1sc(N(C)C)c(C#N)c1-c1ccccc1`: the kinetic solubility is 1.8 µg/mL (≈ 6.29 µM). This solubility kinetic is about 2.8-fold lower than that of the compound before. Next, `O=C(NC1CC2CCCC(C1)N2Cc1ccc(F)cc1)c1ccc(F)cc1` (configuration not stated): more than 55.6 µg/mL; `Cc1ccc(NC(=O)COC(=O)C2CC2)cc1S(=O)(=O)N1CCOCC1`: more than 57.4 µg/mL; `CCN(CC)C(=O)Oc1ccnc2cc(Cl)ccc12`: more than 41.8 µg/mL. Next, `O=C(NCc1ccc2c(c1)OCO2)C(=S)N1CCOCC1`: more than 46.3 µg/mL; `CC(C)(C)OC(=O)N1CCN(C(=O)c2cccnc2Cl)CC1`: more than 48.9 µg/mL; `CCn1c(Oc2ccccc2F)nc2c1c(=O)n(C)c(=O)n2C`: more than 47.7 µg/mL. Next, `Cc1ccc(S(=O)(=O)Nc2ccc3nc(C)sc3c2)c(C)c1`: 30 µg/mL (≈ 90.2 µM); `Nc1cc2c(cc1[N+](=O)[O-])OCCOCCOCCO2`: more than 42.6 µg/mL.

As for `Cc1cc(C(=O)Nc2cccc([N+](=O)[O-])c2C)cs1`, the kinetic solubility worked out at 13.6 µg/mL (≈ 49.2 µM). Next, `COc1ccccc1C1CCN(C(=O)c2ccco2)CC1`: 34 µg/mL (≈ 119 µM); `Cc1csc(NC(=O)c2ccc(N3CCCC3=O)cc2)n1`: 4.7 µg/mL (≈ 15.6 µM).

`Clc1ncc(CSc2ccccc2)s1` displayed a solubility (kinetic) of 2.3 µg/mL (≈ 9.51 µM). Against the preceding compound, the solubility kinetic is about 2-fold lower. Next, `Cl.O=C(c1cc2ccccc2o1)N1CCN(Cc2ccccc2)CC1`: 41.5 µg/mL; `CC(OC(=O)C1=COCCO1)C(=O)Nc1ccc(Cl)cn1` (configuration not stated): more than 46.9 µg/mL.

The values are drawn from PubChem BioAssay AID1996.
